{"source": "patent US20140024677A1", "about": "“METHODS FOR INDUCING MITOCHONDRIAL BIOGENESIS” (MUSC Foundation For Research Development, priority 2012, published 2014)", "key": {"[1]": {"test_system": "mtDNA in heart", "test": "mtDNA copy number in heart of dosed mice (D-loop/apoB)", "format": "in vivo, C57BL/6 mice", "text": "(§1) Mitochondrial DNA Content."}, "[2]": {"test_system": "mtDNA in kidney cortex", "test": "mtDNA copy number in kidney of dosed mice (D-loop/apoB)", "format": "in vivo, C57BL/6 mice", "settings": "72 h after daily repeated i.p. injection with 100 mg/kg (so in the source)", "text": "as §1"}, "[3]": {"test_system": "renal mitochondria", "settings": "treatment after I/R injury", "protocol": "Mitochondrial function was measured ex vivo by isolating renal mitochondria and determining state 4 (basal respiration) and state 3 (ADP-stimulated respiratory rate)."}, "[4]": {"test_system": "KIM-1, PGC-1α, COX I, NDUFB8 in renal cortical tissue", "experimental": "I/R model of AKI. Eight-week-old male C57BL6 mice weighing 25-30 g were subjected to bilateral renal pedicle ligation. Briefly, renal artery and vein were isolated and blood flow was occluded with a vascular clamp for 20 min, and mice were euthanized at 24, 72, or 144 h after procedure, at which time kidneys were harvested for molecular analysis. All procedures involving animals were performed with approval from the IACUC in accordance with the NIH Guide for the Care and Use of Laboratory Animals.\nImmunoblot analysis. Renal cortical tissue was lysed in RIPA buffer containing cocktail protease and phosphatase inhibitors. Total protein content was measured by the BCA assay. Fifty micrograms of total protein were loaded into SDS-PAGE gels and immunoblots were performed as previously described (26). Antibodies used for immunoblot studies were obtained from the following vendors: caspase 3 (Enzo Life Sciences), GAPDH (Fitzgerald Antibodies), COX I and NDUFB8 (MitoSciences), KIM-1 (R&D Systems), and PGC-1α (Calbiochem).\nmRNA analysis. Total RNA was isolated from renal cortical tissue with TRIzol (Invitrogen) according to the manufacturer's protocol and cDNA was synthesized using RevertAid First Strand cDNA Synthesis Kit (Fermentas). PCR reactions were performed using 3:1 diluted cDNA product. Primers sequences for NDUFB8 and COX I were used.\nPrevious in vivo and in vitro research has identified depletion of mitochondrial function and abundance in models of hypoxia correlated with dysfunctional kidney function."}, "[5]": {"test_system": "I/R induced AKI", "settings": "after five doses started 24 h after I/R injury; 144 h", "protocol": "Assessing renal function. For mice, blood was collected by retro-orbital eye bleed 24 h and 144 h. Creatinine levels were measured using a Quantichrom Creatinine Assay Kit (BioAssay Systems, Hayward, Calif.) according to the manufacturer's protocol."}, "[6]": {"test_system": "gastrocnemius muscle", "test": "Dexamethasone-induced muscle wasting, gastrocnemius weight", "format": "in vivo, Mice", "description": "On the 8th day, gastrocnemius muscle was isolated from both the hind limbs and weighed. The average weights were normalized to initial body weights."}, "[7]": {"test_system": "adult feline cardiomyocytes (AFC)", "format": "cell-based", "settings": "24 hr, formoterol 10 and 30 nM", "protocol": "Respirometry assay. […] Each experimental plate was treated with vehicle controls (DMSO<0.5%), a positive control (SRT1720, 10 μM), blank controls, and the appropriate concentration of the compound of interest. The XF-96 protocol consists of five measurements of basal OCR (1 measurement/1.5 min), injection of FCCP (0.5 μM), and three measurements of uncoupled OCR (1 measurement/1.5 min). […] Quality control evaluations considered the basal and uncoupled rates of the vehicle control, positive control, and variances between duplicate treatment wells. […] This threshold is ≧1 S.D. above the historic mean for the vehicle control."}}}
{"compound": "COc1ccc(C[C@@H](C)NC[C@H](O)c2ccc(O)c(NC=O)c2)cc1", "note": "(racemic) [formoterol, rac-(R,R)—N-[2-hydroxy-5-[1-hydroxy-2-[1-(4-methoxyphenyl)propan-2-ylamino]ethyl]phenyl]formamide]", "values": [{"measurement": "mtDNA copy number increase (FIG. 3C, heart figure)", "setting": "[1]; 24 h, i.p. 100 mg/kg (so in the source)", "value": 2, "unit": "fold"}, {"measurement": "mtDNA copy number increase (FIG. 3C, heart figure)", "setting": "[1]; 72 h, daily repeated i.p. 100 mg/kg (so in the source)", "value": 2.5, "unit": "fold"}, {"measurement": "mtDNA copy number increase, kidney cortex", "setting": "[2]", "value": 2, "unit": "fold"}, {"measurement": "Mitochondrial respiration of isolated renal mitochondria (basal and state 3)", "setting": "[3]", "value": "completely restore"}, {"measurement": "KIM-1 protein expression", "setting": "[4]; 144 h post I/R injury", "value": "to the level of sham vehicle"}, {"measurement": "Gene transcription and protein translation in sham animals", "setting": "[4]; sham animals exposed to formoterol vs control animals", "value": "not significantly altered"}, {"measurement": "COX I gene expression", "setting": "[4]; treatment after I/R, 144 h", "value": "restored with treatment of formoterol after I/R, but not significantly different than the I/R vehicle group"}, {"measurement": "COX I protein expression", "setting": "[4]; treatment after I/R, 144 h", "value": "significantly above the I/R vehicle group"}, {"measurement": "NDUFB8 gene transcription", "setting": "[4]; treatment after I/R, 144 h", "value": "did not restore"}, {"measurement": "NDUFB8 protein expression", "setting": "[4]; treatment after I/R, 144 h", "value": "significantly above the I/R vehicle group"}, {"measurement": "Total PGC-1α gene expression", "setting": "[4]; treatment from 24 h post I/R injury, 144 h", "value": "significantly above the I/R vehicle group, but not fully restored to control levels"}, {"measurement": "Serum creatinine (SCr)", "setting": "[5]", "value": 0.29, "unit": "mg/dL"}]}
{"compound": "C[C@@H]1C[C@H]2[C@@H]3CCC4=CC(=O)C=C[C@]4(C)[C@@]3(F)[C@@H](O)C[C@]2(C)[C@@]1(O)C(=O)CO", "note": "[DEX, dexamethasone]", "values": [{"measurement": "Decrease in gastrocnemius wt. compared to saline controls", "setting": "[6]; 25 mg/kg i.p., 7 days, weight normalized to initial body weight", "value": 15, "unit": "%"}]}
{"compound": "CC(C)NC[C@H](O)c1ccc(O)c(O)c1.Cl", "note": "[isoproterenol, (R)-3,4-Dihydroxy-α-(isopropylaminomethyl)benzyl alcohol hydrochloride]", "values": [{"measurement": "Change in FCCP-uncoupled OCR", "setting": "[7]", "value": "did not have any significant effects"}]}
{"compound": "C[C@H](Cc1ccc(OCC(=O)O)cc1)NC[C@H](O)c1cccc(Cl)c1.O.[Na]", "note": "(relative stereo) [BRL 37344, (±)-(R*,R*)-[4-[2-[[2-(3-Chlorophenyl)-2-hydroxyethyl]amino]propyl]phenoxy]acetic acid sodium hydrate]", "values": [{"measurement": "Change in FCCP-uncoupled OCR", "setting": "[7]", "value": "did not have any significant effects"}]}
{"compound": "(3R)-N-methyl-3-(2-methylphenoxy)-3-phenylpropan-1-amine [Tomoxetine]", "values": [{"measurement": "Gastrocnemius muscle weight in DEX-treated mice", "setting": "[6]; co-injected with dexamethasone 25 mg/kg i.p. for 7 days, formoterol 100/300 ug/Kg i.p., atomoxetine 100 ug/kg i.p.", "value": "restored atrophied muscle back to normal"}]}
